Source: PubChem BioAssay (NCI)
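The compound was tested at five concentrations on cells cultured in 96-well plates, with a 48-hour exposure period. At the GI50, growth is halved. Definition used: TGI = concentration required for complete inhibition of growth.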

How the values were obtained:
Assay in all cases: NCI tumour cell line growth inhibition, 48 h
[1] = system: NCI-H460 lung
[2] = system: LOX IMVI melanoma
[3] = system: HT29 colon
[4] = system: SR leukemia
[5] = system: M14 melanoma
[6] = system: MDA-MB-231 breast
[7] = system: HCC-2998 colon
[8] = system: SNB-75 CNS
[9] = system: UO-31 renal
[10] = system: A549 NSCLC
[11] = system: SK-MEL-5 melanoma
[12] = system: DU-145 prostate
[13] = system: HCT-15 colon
[14] = system: OVCAR-5 ovarian
[15] = system: TK-10 renal
[16] = system: SK-OV-3 ovarian
[17] = system: CAKI-1 renal
[18] = system: UACC-62 melanoma
[19] = system: U251 CNS
[20] = system: SF-268 CNS
[21] = system: NCI-H522 lung
[22] = system: OVCAR-4 ovarian
[23] = system: SN12C renal
[24] = system: OVCAR-8 ovarian
[25] = system: MOLT-4 leukemia
[26] = system: NCI-H23 lung
[27] = system: SNB-19 CNS
[28] = system: NCI/ADR-RES ovarian
[29] = system: 786-0 renal
[30] = system: SF-295 CNS
[31] = system: SK-MEL-2 melanoma
[32] = system: IGROV1 ovarian
[33] = system: T-47D breast
[34] = system: K-562 leukemia
[35] = system: A498 renal
[36] = system: MCF7 breast
[37] = system: OVCAR-3 ovarian
[38] = system: HOP-62 NSCLC
[39] = system: HL-60(TB) leukemia
[40] = system: HOP-92 NSCLC
[41] = system: KM12 colon
[42] = system: EKVX NSCLC
[43] = system: SF-539 CNS
[44] = system: PC-3 prostate
[45] = system: UACC-257 melanoma
[46] = system: ACHN renal
[47] = system: SK-MEL-28 melanoma
[48] = system: MALME-3M melanoma
[49] = system: COLO 205 colon
[50] = system: CCRF-CEM leukemia
[51] = system: HCT-116 colon
[52] = system: BT-549 breast
[53] = system: NCI-H226 lung
[54] = system: RPMI-8226 leukemia
[55] = system: HS 578T breast
[56] = system: MDA-MB-435
[57] = system: SW-620 colon
[58] = system: RXF 393 renal

`COc1cc(/C=C/C(=O)c2ccccc2O)ccc1OCCCOc1cc2c(cc1OC)C(=O)N1CCC[C@H]1C=N2` showed a GI50 [1] of 51.1 nM, a TGI [1] of 11100 nM and a GI50 [2] of 20.4 nM. For the same compound, the TGI [2] was 48.9 nM, the GI50 [3] was 34.4 nM and the TGI [3] was over 100000 nM. The GI50 [4] was 18.4 nM, the TGI [4] was 52.3 nM and the GI50 [5] was 40.1 nM. It also gave a TGI [5] of 172 nM, a GI50 [6] of 56.4 nM and a TGI [6] of 335 nM. The GI50 [7] was 138 nM, the TGI [7] was 433 nM and the GI50 [8] was 46.8 nM. For the same compound, the TGI [8] was 222 nM, the GI50 [9] was 81.2 nM and the TGI [9] was 771 nM. The GI50 [10] was 31.5 nM, the TGI [10] was 1240 nM and the GI50 [11] was 57.7 nM. For the same compound, the TGI [11] was 167 nM, the GI50 [12] was 35.1 nM and the TGI [12] was 452 nM. For the same compound, the GI50 [13] was 255 nM, the TGI [13] was 1050 nM and the GI50 [14] was 35.4 nM. It also gave a TGI [14] of 1160 nM, a GI50 [15] of 79.4 nM and a TGI [15] of 1620 nM. For the same compound, the GI50 [16] was 316 nM, the TGI [16] was 3820 nM and the GI50 [17] was 40.3 nM. It also gave a TGI [17] of 313 nM, a GI50 [18] of 38.8 nM and a TGI [18] of 102 nM. The GI50 [19] was 22.6 nM, the TGI [19] was 51.1 nM and the GI50 [20] was 24.7 nM. For the same compound, the TGI [20] was 64 nM, the GI50 [21] was 66.2 nM and the TGI [21] was 453 nM. For the same compound, the GI50 [22] was 116 nM, the TGI [22] was 15200 nM and the GI50 [23] was 52.1 nM. The TGI [23] was 1300 nM, the GI50 [24] was 75.9 nM and the TGI [24] was 13500 nM. For the same compound, the GI50 [25] was 17 nM, the TGI [25] was 57.2 nM and the GI50 [26] was 36.3 nM. It also gave a TGI [26] of 151 nM, a GI50 [27] of 193 nM and a GI50 [28] of 345 nM. It also gave a TGI [28] of 16800 nM, a GI50 [29] of 25 nM and a TGI [29] of 1530 nM. For the same compound, the GI50 [30] was 28.1 nM, the TGI [30] was 89.5 nM and the GI50 [31] was 99.9 nM. The TGI [31] was 392 nM, the GI50 [32] was 25.5 nM and the TGI [32] was 163 nM. It also gave a GI50 [33] of 152 nM, a GI50 [34] of 29.7 nM and a TGI [34] of 18200 nM. The GI50 [35] was 47.9 nM, the TGI [35] was 319 nM and the GI50 [36] was 42.6 nM. For the same compound, the TGI [36] was over 36900 nM, the GI50 [37] was 28.9 nM and the TGI [37] was 124 nM. It also gave a GI50 [38] of 39.2 nM, a TGI [38] of 13100 nM and a GI50 [39] of 51.5 nM. For the same compound, the TGI [39] was 161 nM, the GI50 [40] was 49.9 nM and the TGI [40] was 990 nM. The GI50 [41] was 36.9 nM, the TGI [41] was 263 nM and the GI50 [42] was 215 nM. The TGI [42] was 955 nM, the GI50 [43] was 35.9 nM and the TGI [43] was 118 nM. It also gave a GI50 [44] of 54.1 nM, a TGI [44] of 7510 nM and a GI50 [45] of 158 nM. It also gave a TGI [45] of 527 nM, a GI50 [46] of 71 nM and a TGI [46] of 818 nM. The GI50 [47] was 47.6 nM, the TGI [47] was 109 nM and the GI50 [48] was 78.7 nM. It also gave a TGI [48] of 318 nM, a GI50 [49] of 34.8 nM and a TGI [49] of 144 nM. For the same compound, the GI50 [50] was 27 nM, the TGI [50] was 94 nM and the GI50 [51] was 33.2 nM. The TGI [51] was 1570 nM, the GI50 [52] was 17.9 nM and the TGI [52] was 47.6 nM. For the same compound, the GI50 [53] was 181 nM, the TGI [53] was 541 nM and the GI50 [54] was 28.2 nM. It also gave a TGI [54] of 75.8 nM, a GI50 [55] of 54 nM and a TGI [55] of 284 nM.

For `COc1cccc(C2SC(C)C(=O)N2NC(=O)C(O)c2ccccc2)c1` (stereo not drawn), the GI50 [1] was over 100000 nM, the TGI [1] was over 100000 nM and the GI50 [2] was over 100000 nM. It also gave a TGI [2] of over 100000 nM, a GI50 [3] of over 100000 nM and a TGI [3] of over 100000 nM. It also gave a GI50 [56] of over 100000 nM, a TGI [56] of over 100000 nM and a GI50 [5] of over 100000 nM. For the same compound, the TGI [5] was over 100000 nM, the GI50 [6] was over 100000 nM and the TGI [6] was over 100000 nM. It also gave a GI50 [7] of over 100000 nM, a TGI [7] of over 100000 nM and a GI50 [8] of over 100000 nM. The TGI [8] was over 100000 nM, the GI50 [9] was over 100000 nM and the TGI [9] was over 100000 nM. The GI50 [10] was over 100000 nM, the TGI [10] was over 100000 nM and the GI50 [11] was over 100000 nM. It also gave a TGI [11] of over 100000 nM, a GI50 [12] of over 100000 nM and a TGI [12] of over 100000 nM. The GI50 [13] was over 100000 nM, the TGI [13] was over 100000 nM and the GI50 [14] was over 100000 nM. It also gave a TGI [14] of over 100000 nM, a GI50 [15] of over 100000 nM and a TGI [15] of over 100000 nM. For the same compound, the GI50 [16] was over 100000 nM, the TGI [16] was over 100000 nM and the GI50 [17] was over 100000 nM. For the same compound, the TGI [17] was over 100000 nM, the GI50 [18] was over 100000 nM and the TGI [18] was over 100000 nM. For the same compound, the GI50 [57] was over 100000 nM, the TGI [57] was over 100000 nM and the GI50 [19] was over 100000 nM. It also gave a TGI [19] of over 100000 nM, a GI50 [20] of over 100000 nM and a TGI [20] of over 100000 nM. It also gave a GI50 [21] of over 100000 nM, a TGI [21] of over 100000 nM and a GI50 [58] of over 100000 nM. It also gave a TGI [58] of over 100000 nM, a GI50 [22] of 41700 nM and a TGI [22] of over 100000 nM. It also gave a GI50 [23] of over 100000 nM, a TGI [23] of over 100000 nM and a GI50 [24] of over 100000 nM. The TGI [24] was over 100000 nM, the GI50 [25] was over 100000 nM and the TGI [25] was over 100000 nM. For the same compound, the GI50 [26] was over 100000 nM, the TGI [26] was over 100000 nM and the GI50 [27] was over 100000 nM. For the same compound, the TGI [27] was over 100000 nM, the GI50 [29] was over 100000 nM and the TGI [29] was over 100000 nM. For the same compound, the GI50 [30] was over 100000 nM, the TGI [30] was over 100000 nM and the GI50 [31] was over 100000 nM. The TGI [31] was over 100000 nM, the GI50 [32] was over 100000 nM and the TGI [32] was over 100000 nM. The GI50 [33] was over 100000 nM, the TGI [33] was over 100000 nM and the GI50 [34] was over 100000 nM. It also gave a TGI [34] of over 100000 nM, a GI50 [35] of over 100000 nM and a TGI [35] of over 100000 nM. The GI50 [36] was over 100000 nM, the TGI [36] was over 100000 nM and the GI50 [37] was over 100000 nM. The TGI [37] was over 100000 nM, the GI50 [38] was over 100000 nM and the TGI [38] was over 100000 nM. The GI50 [40] was over 100000 nM, the TGI [40] was over 100000 nM and the GI50 [41] was over 100000 nM. For the same compound, the TGI [41] was over 100000 nM, the GI50 [42] was over 100000 nM and the TGI [42] was over 100000 nM. The GI50 [43] was over 100000 nM, the TGI [43] was over 100000 nM and the GI50 [44] was over 100000 nM. For the same compound, the TGI [44] was over 100000 nM, the GI50 [45] was over 100000 nM and the TGI [45] was over 100000 nM. It also gave a GI50 [46] of over 100000 nM, a TGI [46] of over 100000 nM and a GI50 [47] of over 100000 nM. For the same compound, the TGI [47] was over 100000 nM, the GI50 [48] was over 100000 nM and the TGI [48] was over 100000 nM. It also gave a GI50 [49] of over 100000 nM, a TGI [49] of over 100000 nM and a GI50 [50] of over 100000 nM. The TGI [50] was over 100000 nM, the GI50 [51] was over 100000 nM and the TGI [51] was over 100000 nM. It also gave a GI50 [52] of over 100000 nM, a TGI [52] of over 100000 nM and a GI50 [53] of over 100000 nM. The TGI [53] was over 100000 nM, the GI50 [54] was over 100000 nM and the TGI [54] was over 100000 nM. The GI50 [55] was over 100000 nM and the TGI [55] was over 100000 nM.
